Columns and labels:
S. epidermidis = assay: Light-enhanced bacteria killing, plate counting method; format: cell-based; settings: 5 μM, light irradiation of 2 min
Experimental: (§1) FIGS. 15C-F are graphs depicting bacteria survival rates for bacteria that were incubated with TriPE-NT (10 μM) for 10 min, the bacteria suspensions (50 μL) were plated on agar plates and treated by white-light illumination (4 mW cm^−2) for 0, 2 and 30 min respectively. FIG. 15C is a graph plotting survival rate versus time of E. coli and MDR E. coli. FIG. 15D is a graph plotting survival rate versus time of K. pneumoniae and MDR K. pneumoniae. FIG. 15E is a graph plotting survival rate versus time of S. epidermidis and MDR S. epidermidis. FIG. 15F is a graph plotting survival rate versus time of S. aureus and MDR S. aureus.
(§2) FIGS. 16A-B are graphs depicting bacteria survival rates for bacteria that were incubated with TriPE-NT (0, 5, 10 μM) for 0 (S-0) and 10 (S-10) min, the bacteria suspensions (50 μL) were plated on agar plates and treated by white-light illumination (4 mW cm^−2) for 2 (I-2), 10 (I-10) and 30 (I-30) min respectively. FIG. 16A is a graph plotting the survival rate versus time of E. coli. FIG. 16B is a graph plotting the survival rate versus time of S. epidermidis.
(§3) The bacteria killing effect of TriPE-NT was evaluated on both wild and clinically isolated MDR bacteria by a traditional plate counting method. First, E. coli and S. epidermidis, as the representative of Gram-negative (G−) and Gram-positive (G+) bacteria, were used to determine the effective bactericidal concentration and illumination time. The bacteria were incubated with TriPE-NT (0, 5, 10 μM) for 0 and 10 min, the bacteria suspensions (50 μL) were plated on agar plates and treated by white-light illumination (4 mW cm^−2) for 2, 10 and 30 min respectively (FIGS. 16A-B). […] Thus, 10 μM TriPE-NT and light irradiation for 2 min or 30 min were set as experimental conditions in the following experiments.

E. coli = assay: as above; format: cell-based
Experimental: as §1, §2, §3

**Q.** What does the source list for `COc1ccc(C(=Cc2ccc(-c3ccc4c5c(cccc35)C(=O)N(CCCCn3c[n+](Cc5ccc(F)cc5F)cn3)C4=O)cc2)c2ccc(OC)cc2)cc1` [TriPE-NT]?
**A.** S. epidermidis killed (S. epidermidis): all S. epidermidis were killed; E. coli killed (E. coli; 10 μM, white light 4 mW cm^−2, 30 min): killed all and all; survival rate of E. coli (E. coli; in darkness, 10 μM TriPE-NT): approximately 6.8±0.6%
